A short description of data set [1]: Release study of BA-DMSO liposome by dialysis (CEST MRI and UV 257 nm). Format: physicochemical. The following applies: at the end of dialysis, BA in 10% DMSO in liposomes. How it is done:
The size, polydispersity index (PDI), and surface charge of DMSO liposome were measured by dynamic light scattering using Zetasizer (Malvern Instruments, UK). Liposome concentration was measured by light scattering using NanoSight (Malvern Instruments, UK). To study the release property, dialysis cassettes with molecular weight cut-off of 10 kDa (Thermo Fisher, Waltham, USA) were used. The cassettes were first hydrated in HBS for 2 minutes. 1 mL of liposome sample was then loaded into the membrane chamber of two separate cassettes and excess air was removed by gentle squeezing of the membrane. The loaded cassettes were submerged into two beakers with 50 mL HBS at 37° C. At 15 min, 30 min, 1 hour, and 3 hour, 200 μL of dialyzed liposomes were taken out for CEST MRI measurement. In the other dialysis cassette, 1 mL of dialysis medium were taken out from the cassette at each timepoint for UV spectrometric measurement at an absorbance of 257 nm, and 1 mL of fresh medium was added after each time the medium was taken out. The retention of drug within liposome before and after dialysis was determined by measuring the UV absorbance of the supernatant obtained by treating liposome solutions with 10% Triton-X solution, sonicating at 42° C. for 1 hour, and centrifuging at 10,000 rpm. Concentration of BA was determined from BA standard curve.

A short description of data set [2]: Bloch-McConnell fitting of DMSO CEST peak. Format: physicochemical. As to conditions: 10% v/v DMSO. Here is the method: During the course leading to the present invention, a series of internal and external factors that can influence DMSO's CEST effect were examined. DMSO's concentration linearly correlated with observed signal magnitude, while the change in signal when varying pH from pH 5.5 to pH 8 was less obvious. As temperature went down from 40° C. to 20° C., DMSO's CEST peak gradually moved upfield (please see FIGS. 1F to 1G). It appears that intermolecular interaction between DMSO and water was dependent on temperature. […] Exchange rate and was estimated with Bloch-McConnell fitting. Input of solute concentration was 1.41 M (molar concentration of 10% v/v DMSO) multiplied by a factor of 1.4, which was an estimation of concentration of “structured” water that formed by intermolecular interaction with DMSO and thereby served as relaying sites.

Drawing on patent US20250288206A1, “SYSTEMS AND METHODS FOR MONITORING OF DELIVERY OF LABEL-FREE DRUGS” (City University of Hong Kong, priority 2024, published 2025), this text covers BA content released, estimated exchange rate and Kex for two compounds.

In the case of `O=C1CC(=O)NC(=O)N1` [BA, barbituric acid], the BA content released result in data set [1] is “around 80%”.

As to `C[S+](C)[O-]` [DMSO, dimethyl sulfoxide], the estimated exchange rate entry in data set [2] (Bloch-McConnell fitting) is “around 2 Hz”. The compound also showed a Kex in data set [2] (fitted value, B0 3T, B1 1.2 μT, Tsat 4 s) of 2.1341 s⁻¹.
